Measurements: ChEMBL document CHEMBL2010689 (J Med Chem, 2012)
pEC50, pIC50, pKi: −log10 of the molar value. Active and inactive are the calls of the source. The rule behind the calls is not given here.

How the values were obtained:
[1] = Antitumor activity against human U251MG cells xenografted in athymic nude mouse assessed as partial tumor regression at 1 mg/kg, po bid; format: functional, U-251
[2] = Antitumor activity against human U251MG cells xenografted in athymic nude mouse assessed as complete tumor regression at 10 mg/kg, po bid; format: functional, U-251
[3] = Antitumor activity against human U251MG cells xenografted in athymic nude mouse assessed as complete tumor regression at 30 mg/kg, po bid; format: functional, U-251
[4] = Toxicity in dog purkinje fibres assessed as drug-induced QT interval change; format: tissue-based, Canis lupus familiaris, Purkinje fiber
[5] = Toxicity in dog purkinje fibres assessed as drug-induced change in action potential; format: tissue-based, Canis lupus familiaris, Purkinje fiber
[6] = Metabolic stability in rat liver S9 fraction assessed as compound remaining after 2 hrs; format: ADME, subcellular; conditions: read-out: Stability
[7] = Metabolic stability in mouse liver S9 fraction assessed as compound remaining after 2 hrs; format: ADME, subcellular; conditions: read-out: Stability
[8] = Metabolic stability in monkey liver S9 fraction assessed as compound remaining after 2 hrs; format: ADME, subcellular, Macaca mulatta; conditions: rhesus monkey, read-out: Stability
[9] = Terminal half life in Sprague-Dawley rat at 0.8 mg/kg, iv; format: ADME, organism-based; set-up: dose 0.8 mg/kg, route intravenous; conditions: in vivo, read-out: beta t1/2 (converted)
[10] = Clearance in Sprague-Dawley rat at 0.8 mg/kg, iv; format: ADME, organism-based; set-up: dose 0.8 mg/kg, route intravenous; conditions: in vivo
[11] = Tmax in Sprague-Dawley rat at 5 mg/kg, po; format: ADME, organism-based; set-up: dose 5 mg/kg, route oral; conditions: in vivo
[12] = Cmax in cynomolgus monkey at 3 mg/kg, po; format: ADME, organism-based, Macaca fascicularis; set-up: dose 3 mg/kg, route oral; conditions: in vivo
[13] = Half life in cynomolgus monkey at 3 mg/kg, po; format: ADME, organism-based, Macaca fascicularis; set-up: dose 3 mg/kg, route oral; conditions: in vivo
[14] = Tmax in cynomolgus monkey at 3 mg/kg, po; format: ADME, organism-based, Macaca fascicularis; set-up: dose 3 mg/kg, route oral; conditions: in vivo
[15] = Oral bioavailability in cynomolgus monkey at 3 mg/kg; format: ADME, organism-based, Macaca fascicularis; conditions: in vivo
Cytochrome P450 2D6 = Cytochrome P450 2D6 (Homo sapiens, UniProt P10635); assay: Inhibition of CYP2D6; format: ADME
Chain of Cytochrome P450 2D6 (P10635 whole entry): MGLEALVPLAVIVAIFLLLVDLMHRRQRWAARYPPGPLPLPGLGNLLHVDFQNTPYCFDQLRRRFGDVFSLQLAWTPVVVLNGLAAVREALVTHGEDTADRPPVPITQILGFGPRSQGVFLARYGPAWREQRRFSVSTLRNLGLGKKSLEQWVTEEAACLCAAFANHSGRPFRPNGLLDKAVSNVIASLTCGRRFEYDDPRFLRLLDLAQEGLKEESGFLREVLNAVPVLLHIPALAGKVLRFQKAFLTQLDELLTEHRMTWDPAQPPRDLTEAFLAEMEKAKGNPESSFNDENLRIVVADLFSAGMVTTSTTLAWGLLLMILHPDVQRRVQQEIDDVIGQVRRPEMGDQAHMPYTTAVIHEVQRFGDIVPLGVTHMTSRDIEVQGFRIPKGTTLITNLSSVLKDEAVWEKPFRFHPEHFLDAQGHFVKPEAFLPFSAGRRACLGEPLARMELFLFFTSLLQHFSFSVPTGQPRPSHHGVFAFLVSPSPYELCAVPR

[16] = Apparent permeability across human Caco2 cells; format: ADME, cell-based; conditions: Caco-2
Aurora kinase A = Aurora kinase A (Homo sapiens, UniProt O14965); assay: Inhibition of human Aurora-A using ATP as substrate
Chain of Aurora kinase A (O14965 whole entry): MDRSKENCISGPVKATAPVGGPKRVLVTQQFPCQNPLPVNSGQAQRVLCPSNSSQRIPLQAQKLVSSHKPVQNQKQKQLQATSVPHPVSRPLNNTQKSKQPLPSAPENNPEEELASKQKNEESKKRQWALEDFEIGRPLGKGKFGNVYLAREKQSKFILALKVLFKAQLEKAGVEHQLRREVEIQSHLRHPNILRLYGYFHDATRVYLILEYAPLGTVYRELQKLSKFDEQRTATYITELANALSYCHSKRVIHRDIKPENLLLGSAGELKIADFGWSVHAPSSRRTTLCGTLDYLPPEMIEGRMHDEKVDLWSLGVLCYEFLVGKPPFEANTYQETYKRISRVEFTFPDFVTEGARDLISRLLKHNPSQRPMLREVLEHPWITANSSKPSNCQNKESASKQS

[17] = biological target: Serine/threonine-protein kinase Chk2 (Homo sapiens, UniProt O96017); assay: Inhibition of human CHK2 using ATP as substrate
[18] = biological target: Proto-oncogene tyrosine-protein kinase Src (Homo sapiens, UniProt P12931); assay: Inhibition of human cSrc using ATP as substrate
Chain of Proto-oncogene tyrosine-protein kinase Src (P12931 2-536 limits assumed): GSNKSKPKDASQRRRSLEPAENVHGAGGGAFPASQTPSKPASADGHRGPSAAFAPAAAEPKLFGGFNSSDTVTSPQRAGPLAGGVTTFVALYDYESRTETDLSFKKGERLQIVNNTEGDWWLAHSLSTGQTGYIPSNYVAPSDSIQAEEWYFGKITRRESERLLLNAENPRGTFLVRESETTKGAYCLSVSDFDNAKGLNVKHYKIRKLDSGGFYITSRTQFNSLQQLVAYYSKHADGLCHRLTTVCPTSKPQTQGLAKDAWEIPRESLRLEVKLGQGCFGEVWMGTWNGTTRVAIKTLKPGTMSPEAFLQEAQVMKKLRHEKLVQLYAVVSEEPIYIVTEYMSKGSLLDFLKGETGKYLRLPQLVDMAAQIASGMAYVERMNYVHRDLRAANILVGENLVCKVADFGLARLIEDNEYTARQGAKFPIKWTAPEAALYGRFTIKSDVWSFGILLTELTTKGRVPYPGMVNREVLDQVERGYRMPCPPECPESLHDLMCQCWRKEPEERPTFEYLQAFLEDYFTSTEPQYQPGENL

[19] = biological target: Fibroblast growth factor receptor 3 (Homo sapiens, UniProt P22607); assay: Inhibition of human FGFR3 using ATP as substrate
Chain of Fibroblast growth factor receptor 3 (P22607 whole entry): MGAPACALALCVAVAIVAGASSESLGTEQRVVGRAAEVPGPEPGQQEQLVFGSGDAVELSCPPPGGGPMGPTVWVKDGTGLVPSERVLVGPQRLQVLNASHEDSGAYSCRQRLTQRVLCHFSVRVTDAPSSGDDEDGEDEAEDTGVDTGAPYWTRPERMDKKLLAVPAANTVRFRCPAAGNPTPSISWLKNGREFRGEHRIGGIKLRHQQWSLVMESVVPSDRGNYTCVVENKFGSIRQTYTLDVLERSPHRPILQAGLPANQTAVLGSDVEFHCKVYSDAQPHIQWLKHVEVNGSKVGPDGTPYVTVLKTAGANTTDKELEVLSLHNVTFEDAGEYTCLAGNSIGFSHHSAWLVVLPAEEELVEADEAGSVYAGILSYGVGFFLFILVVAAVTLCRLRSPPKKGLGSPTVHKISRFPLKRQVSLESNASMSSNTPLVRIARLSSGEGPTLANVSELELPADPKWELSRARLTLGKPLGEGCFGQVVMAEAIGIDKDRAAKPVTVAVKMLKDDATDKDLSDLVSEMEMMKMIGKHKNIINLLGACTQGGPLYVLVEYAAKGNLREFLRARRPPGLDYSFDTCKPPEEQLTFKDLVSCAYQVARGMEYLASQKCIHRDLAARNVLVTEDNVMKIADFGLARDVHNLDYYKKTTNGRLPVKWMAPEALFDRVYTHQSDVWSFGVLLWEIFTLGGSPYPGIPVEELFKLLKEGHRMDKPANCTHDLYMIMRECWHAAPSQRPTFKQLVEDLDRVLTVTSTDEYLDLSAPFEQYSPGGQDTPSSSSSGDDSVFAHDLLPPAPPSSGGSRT

[20] = biological target: Macrophage colony-stimulating factor 1 receptor (Homo sapiens, UniProt P07333); assay: Inhibition of human FMS using ATP as substrate
[21] = biological target: Epidermal growth factor receptor (Homo sapiens) (UniProt P00533); assay: Inhibition of EGFR at 1 uM
Adenosine receptor A2a = Adenosine receptor A2a (Homo sapiens, UniProt P29274); assay: Inhibition of adenosine A2A receptor at 10 uM
Chain of Adenosine receptor A2a (P29274 whole entry): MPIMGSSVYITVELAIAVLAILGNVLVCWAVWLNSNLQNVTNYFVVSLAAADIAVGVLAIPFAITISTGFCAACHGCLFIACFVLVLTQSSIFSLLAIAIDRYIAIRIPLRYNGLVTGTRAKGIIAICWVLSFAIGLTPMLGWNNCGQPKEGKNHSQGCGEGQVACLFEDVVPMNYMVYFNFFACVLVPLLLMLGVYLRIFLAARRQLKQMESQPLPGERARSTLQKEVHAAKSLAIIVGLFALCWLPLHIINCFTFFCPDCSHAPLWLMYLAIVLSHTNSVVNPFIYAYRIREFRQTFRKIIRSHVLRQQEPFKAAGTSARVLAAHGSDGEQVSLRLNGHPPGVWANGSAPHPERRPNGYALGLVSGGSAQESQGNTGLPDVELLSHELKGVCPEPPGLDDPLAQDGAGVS

[22] = biological target: Substance-K receptor (Homo sapiens) (UniProt P21452); assay: Inhibition of neurokinin NK2 receptor at 10 uM
Chain of Substance-K receptor (Homo sapiens) (P21452 whole entry): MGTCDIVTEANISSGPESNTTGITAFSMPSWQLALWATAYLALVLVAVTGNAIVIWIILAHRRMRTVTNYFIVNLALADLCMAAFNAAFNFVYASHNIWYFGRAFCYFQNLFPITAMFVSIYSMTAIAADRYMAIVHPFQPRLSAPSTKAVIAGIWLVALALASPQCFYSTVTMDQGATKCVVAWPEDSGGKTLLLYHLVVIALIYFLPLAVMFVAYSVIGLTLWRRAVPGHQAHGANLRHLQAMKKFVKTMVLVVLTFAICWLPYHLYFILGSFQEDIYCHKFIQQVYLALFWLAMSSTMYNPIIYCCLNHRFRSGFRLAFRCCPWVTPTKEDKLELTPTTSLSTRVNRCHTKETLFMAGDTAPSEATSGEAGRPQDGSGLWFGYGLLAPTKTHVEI

[23] = biological target: Muscarinic acetylcholine receptor M4 (Homo sapiens, UniProt P08173); assay: Inhibition of muscarinic M4 receptor
Chain of Muscarinic acetylcholine receptor M4 (P08173 whole entry): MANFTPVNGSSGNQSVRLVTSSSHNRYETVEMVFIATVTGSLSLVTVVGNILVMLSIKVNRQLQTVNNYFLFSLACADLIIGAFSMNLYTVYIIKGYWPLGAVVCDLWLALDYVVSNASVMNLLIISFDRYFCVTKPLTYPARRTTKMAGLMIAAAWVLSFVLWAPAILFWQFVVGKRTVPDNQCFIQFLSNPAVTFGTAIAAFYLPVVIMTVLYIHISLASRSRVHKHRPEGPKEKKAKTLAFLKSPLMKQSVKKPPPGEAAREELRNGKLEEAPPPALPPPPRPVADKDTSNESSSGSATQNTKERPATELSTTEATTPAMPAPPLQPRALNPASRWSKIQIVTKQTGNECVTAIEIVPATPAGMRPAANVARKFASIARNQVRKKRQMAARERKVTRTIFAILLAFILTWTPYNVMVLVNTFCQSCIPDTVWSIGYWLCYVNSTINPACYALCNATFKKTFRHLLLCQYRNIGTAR

Aorta = assay: Cytotoxicity against rat aortic rings; format: tissue-based
HUVEC [24] = assay: Antiangiogenic activity in HUVEC assessed as inhibition of angiopoietin 1-induced chemotaxis at > = 50 nM by boyden chamber assay; format: functional, cell-based; conditions: Homo sapiens
HUVEC [25] = assay: Cytotoxicity against angiopoietin 1-stimulated HUVEC at > = 50 nM; format: cell-based; conditions: human
HUVEC [26] = assay: Antiangiogenic activity in HUVEC assessed as inhibition of VEGF-induced migration; format: functional, cell-based; conditions: Homo sapiens
[27] = Antiangiogenic activity in HMVEC assessed as inhibition of VEGF-induced migration; format: functional; conditions: Homo sapiens
HUVEC [28] = assay: Antiangiogenic activity in HUVEC assessed as inhibition of FGF-induced migration; format: functional, cell-based; conditions: Homo sapiens
[29] = Antiangiogenic activity in HMVEC assessed as inhibition of FGF-induced migration; format: functional; conditions: Homo sapiens
[30] = Antiangiogenic activity in BAEC assessed as inhibition of FGF-induced migration; format: functional; conditions: Bos taurus
HUVEC [31] = assay: Antiangiogenic activity in HUVEC assessed as inhibition of VEGF-induced survival; format: functional, cell-based; conditions: Homo sapiens
[32] = Antiangiogenic activity in HMVEC assessed as inhibition of VEGF-induced survival; format: functional, Homo sapiens
[33] = Antiangiogenic activity in BAEC assessed as inhibition of VEGF-induced survival; format: functional, Bos taurus
HUVEC [34] = assay: Antiangiogenic activity in HUVEC assessed as inhibition of FGF-induced survival; format: functional, cell-based; conditions: Homo sapiens
[35] = Antiangiogenic activity in BAEC assessed as inhibition of FGF-induced survival; format: functional, Bos taurus
[36] = Antitumor activity against human U251MG cells xenografted in athymic nude mouse assessed as tumor growth inhibition at 1 mg/kg, po bid measured on day 29 relative to control; format: functional; conditions: U-251, 696 h, read-out: GI
[37] = Antitumor activity against human U251MG cells xenografted in athymic nude mouse assessed as tumor growth inhibition at 30 mg/kg, po bid measured on day 29 relative to control; format: functional; conditions: U-251, 696 h, read-out: GI
[38] = Antitumor activity against human U251MG cells xenografted in po dosed athymic nude mouse assessed as tumor growth inhibition bid measured on day 29 relative to control; format: functional; conditions: U-251, po, 696 h, read-out: MED
[39] = Cmax in athymic nude mouse plasma xenografted with human U251MG cells at 30 mg/kg, po; format: ADME, organism-based, U-251; set-up: dose 30 mg/kg, route oral
A-375 [40] = assay: Antitumor activity against human A375 cells xenografted in athymic nude mouse assessed as tumor growth inhibition at 0.3 mg/kg, po bid measured on day 29 relative to control; format: functional; conditions: A-375, 696 h, read-out: GI
A-375 [41] = assay: Antitumor activity against human A375 cells xenografted in athymic nude mouse assessed as complete tumor regression at 3 mg/kg, po bid; format: functional
Mus musculus = assay: Toxicity in athymic nude mouse bearing human U251MG cells assessed as body weight change at 1 to 30 mg/kg, po; format: organism-based, U-251; set-up: dose 1-30 mg/kg, route oral; conditions: in vivo
P388 [42] = assay: Antitumor activity against mouse P388 cells xenografted in DBA/2 mouse assessed as mean survival at 30 mg/kg, po qd for 7 days followed by readministeration after 7 days; format: functional
P388 [43] = assay: Antitumor activity against mouse P388 cells xenografted in DBA/2 mouse assessed as mean survival at 30 mg/kg, po qd for 14 days followed by readministeration after 7 days; format: functional
P388 [44] = assay: Antitumor activity against mouse P388 cells xenografted in DBA/2 mouse assessed as mean survival at 30 mg/kg, po bid (reference value: 14 days); format: functional
[45] = biological target: Vascular endothelial growth factor receptor 2 (Homo sapiens, UniProt P35968)
Chain of Vascular endothelial growth factor receptor 2 (P35968 whole entry): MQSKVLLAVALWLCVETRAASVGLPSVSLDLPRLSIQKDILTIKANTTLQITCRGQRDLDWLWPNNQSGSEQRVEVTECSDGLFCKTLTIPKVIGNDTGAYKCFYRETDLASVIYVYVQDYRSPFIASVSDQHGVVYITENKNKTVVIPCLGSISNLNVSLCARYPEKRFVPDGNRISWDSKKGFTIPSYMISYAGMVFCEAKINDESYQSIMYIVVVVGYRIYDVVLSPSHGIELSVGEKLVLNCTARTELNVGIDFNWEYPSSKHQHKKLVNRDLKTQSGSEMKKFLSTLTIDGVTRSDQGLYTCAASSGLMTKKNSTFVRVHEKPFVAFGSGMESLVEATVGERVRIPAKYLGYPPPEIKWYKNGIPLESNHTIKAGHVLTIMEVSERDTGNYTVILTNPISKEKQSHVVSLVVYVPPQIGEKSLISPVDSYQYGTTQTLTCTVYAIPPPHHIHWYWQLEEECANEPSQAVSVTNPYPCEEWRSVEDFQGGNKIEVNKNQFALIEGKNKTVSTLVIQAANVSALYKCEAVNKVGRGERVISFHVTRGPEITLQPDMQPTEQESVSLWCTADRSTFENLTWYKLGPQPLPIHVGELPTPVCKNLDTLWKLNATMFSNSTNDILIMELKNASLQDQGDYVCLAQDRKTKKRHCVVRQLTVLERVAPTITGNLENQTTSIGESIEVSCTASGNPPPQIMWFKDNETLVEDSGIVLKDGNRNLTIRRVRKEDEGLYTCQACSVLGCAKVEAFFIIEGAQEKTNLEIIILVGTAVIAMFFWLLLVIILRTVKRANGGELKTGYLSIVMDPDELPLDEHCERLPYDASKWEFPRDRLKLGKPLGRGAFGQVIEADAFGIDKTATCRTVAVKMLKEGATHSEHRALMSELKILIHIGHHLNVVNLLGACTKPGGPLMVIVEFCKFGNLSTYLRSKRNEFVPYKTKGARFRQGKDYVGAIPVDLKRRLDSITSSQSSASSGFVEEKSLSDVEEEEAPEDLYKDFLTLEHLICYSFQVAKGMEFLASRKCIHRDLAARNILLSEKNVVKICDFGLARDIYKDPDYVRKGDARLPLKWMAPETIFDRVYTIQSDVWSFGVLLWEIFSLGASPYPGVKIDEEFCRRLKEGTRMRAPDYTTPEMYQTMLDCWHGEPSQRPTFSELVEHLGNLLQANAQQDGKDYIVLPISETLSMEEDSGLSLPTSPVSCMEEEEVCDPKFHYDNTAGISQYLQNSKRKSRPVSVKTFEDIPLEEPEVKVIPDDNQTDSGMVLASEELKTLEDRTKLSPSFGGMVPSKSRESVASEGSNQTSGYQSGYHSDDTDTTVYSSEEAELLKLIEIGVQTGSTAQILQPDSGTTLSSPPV
Description: Inhibition of human VEGFR2 expressed in porcine PAE145 cells cotransfected with chimeric rat TRK-A/KDR receptor after 1 hr by immunofluorescence assay

[46] = Cmax in athymic nude mouse plasma xenografted with human A375 cells at 10 mg/kg, po
A-375 [47] = assay: Antitumor activity against human A375 cells xenografted in athymic nude mouse assessed as complete tumor regression at 0.3 mg/kg, po bid

CC(C)Cn1c2ccc(Nc3ncccn3)cc2c2c3c(c4c(c21)CCc1nn(C)cc1-4)C(=O)NC3 [CEP-11981]
Activity [1]: 0% | Activity [2]: 0% | Activity [3]: 0% | Activity [4]: Non-toxic | Activity [5]: Non-toxic | remaining at 2 h [6]: 65% | remaining at 2 h [7]: 65% | remaining at 2 h [8]: 54% | half-life [9]: 1.9 h | clearance [10]: 4.3 mL/min/kg | Tmax [11]: 2 h | Cmax [12]: 491 ng/mL | half-life [13]: 2.4 h | Tmax [14]: 2 h | bioavailability [15]: 93% | pIC50 (Cytochrome P450 2D6): < 4.52 | Papp [16]: > 4 ×10⁻⁶ cm/s | pIC50 (Aurora kinase A): 7.38 | pIC50 [17]: 6.85 | pIC50 [18]: 7.43 | pIC50 [19]: 7.05 | pIC50 [20]: 7.11 | inhibition [21]: Active | inhibition (Adenosine receptor A2a): > 80% | inhibition [22]: > 80% | pKi [23]: 5.54 | Activity (Aorta): Non-toxic | Activity (HUVEC [24]): Active | Activity (HUVEC [25]): Non-toxic | pEC50 (HUVEC [26]): 8.10 | pEC50 [27]: 8.10 | pEC50 (HUVEC [28]): 8.10 | pEC50 [29]: 8.10 | pEC50 [30]: 8.10 | pEC50 (HUVEC [31]): 8.10 | pEC50 [32]: 8.10 | pEC50 [33]: 8.10 | pEC50 (HUVEC [34]): 8.10 | pEC50 [35]: 8.10 | inhibition in vivo at 1 mg/kg [36]: 43% | inhibition in vivo at 30 mg/kg [37]: 88% | minimal effective dose [38]: 3 mg/kg | Cmax [39]: 1200 ng/mL | inhibition in vivo at 0.3 mg/kg (A-375 [40]): 71% | Activity (A-375 [41]): 22% | Activity (Mus musculus): Non-toxic | MSD (P388 [42]): 18.5 days | MSD (P388 [43]): 23.5 days | MSD (P388 [44]): 27.5 days | pIC50 [45]: > 8.00 | Cmax [46]: 456 ng/mL | Activity (A-375 [47]): 10%
